From paper PMC3423582 (Bioorganic & medicinal chemistry letters, 2012)
pEC50: −log10 of the molar value. “Also recorded” adds a separate entry of the source.

What was measured:
[1] = test system: BJ-TERT/LT/ST/RAS^V12; experiment: Cell death by photograph after 24 hours; type: cell-based; conditions: compound 27 30 µM, staurosporine 1 µM
[2] = test system: caspase 3/7 in BJ-TERT cells; experiment: Caspase 3/7 activation; type: cell-based; conditions: 28 hours, two-fold 14-point dilution series, Apo-ONE
[3] = test system: BJ-TERT; experiment: Cell death by photograph after 24 hours; type: cell-based; conditions: compound 27 30 µM, staurosporine 1 µM
[4] = test system: caspase 3/7 in BJ-TERT/LT/ST/RAS^V12 cells; experiment: Caspase 3/7 activation; type: cell-based; conditions: 28 hours, two-fold 14-point dilution series, Apo-ONE
[5] = test system: HT1080 cells; experiment: Modulatory profiling: suppression of lethality by biologically active compounds; type: cell-based, human; conditions: z-VAD-fmk (45 µM) or Boc-D-fmk (50 µM)
[6] = test system: seven cell lines (MCF7, HT-1080, U2OS, RKO, H1299, BJ-TERT, BJ-TERT/LT/ST/RAS^V12); experiment: Lethality across the panel of seven cell lines; type: cell-based; conditions: summary of Table 1
[7] = test system: BJ-TERT/LT/ST/RAS^V12; experiment: Lethality; type: cell-based; conditions: ratio of LC50 values
[8] = test system: BJ-TERT/LT/ST/RAS^V12; experiment: Kinetic analysis of induced cell death; type: cell-based; conditions: treated at the LC90 (30 µM)
[9] = test system: BJ-TERT; conditions: read-out: EC50 (BJ-TERT); cited from earlier work
[10] = test system: BJ-TERT/LT/ST/RAS^V12; conditions: read-out: EC50 (BJ-TERT/LT/ST/RAS^V12); cited from earlier work

Compound: CCOC(=O)C1c2c(c3ccccc3n2C)CCN1C(=O)OC (centres unmarked) [Compound 27]
- Cell death in BJ-TERT/LT/ST/RAS^V12 cells [1]: observed only in BJ-TERT/LT/ST/RAS^V12 cells
- Caspase 3/7 activation in BJ-TERT [2]: does not induce caspase activation
- Cell death in BJ-TERT cells [3]: not BJ-TERT
- Caspase 3/7 activation in BJ-TERT/LT/ST/RAS^V12 [4]: failed to induced caspase 3/7 activation
- Effect of caspase inhibitors on the compound's lethality [5]: not inhibited
- Lethality across the seven cell lines (in words) [6]: showed lethality in at least five cell lines; also recorded: effective in inducing cell death in six out of seven cell lines
- Enhancement of lethality compared with compound 1 in BJ-TERT/LT/ST/RAS^V12 [7]: four fold enhancement
- Time at which compound started to kill cells [8]: ≤ 12 h
- Time to complete cell death [8]: ≤ 24 h

Compound: CC(C)(C)OC(=O)N1CCc2c(n(C(=O)OC(C)(C)C)c3ccccc23)C1CC=O (centres unmarked) [Compound 13]
- Lethality across the seven cell lines (in words) [6]: showed lethality in at least five cell lines

Compound: CN[C@@H]1C[C@H]2O[C@@](C)([C@@H]1OC)n1c3ccccc3c3c4c(c5c6ccccc6n2c5c31)C(=O)NC4 [Staurosporine, reference compound]
- Cell death in BJ-TERT/LT/ST/RAS^V12 cells [1]: induced cell death
- Cell death in BJ-TERT cells [3]: induced cell death

Compound: CC(CC1C(=O)N(C)C(=O)N(C)C1=O)C1c2c(c3ccccc3n2C(=O)OC(C)(C)C)CCN1C(=O)OC(C)(C)C (centres unmarked) [Compound 21]
- Lethality across the seven cell lines (in words) [6]: modest to good potency in six cell lines; also recorded: showed lethality in at least five cell lines

Compound: CN1C(=O)C(C2NC=Cc3c2[nH]c2ccccc32)C(=O)N(C)C1=O (centres unmarked) [Compound 2a, 5-(2,9-dihydro-1H-pyrido[3,4-b]indol-1-yl)-1,3-dimethylpyrimidine-2,4,6(1H,3H,5H)-trione]
- Lethality across the seven cell lines (in words) [6]: showed lethality in at least five cell lines
- Enhancement of lethality compared with compound 1 in BJ-TERT/LT/ST/RAS^V12 [7]: two-fold more lethal

Compound: COC(OC)C1c2[nH]c3ccccc3c2CCN1C(=O)OCc1ccccc1 (centres unmarked) [Compound 34]
- Lethality across the seven cell lines (in words) [6]: showed lethality in at least five cell lines

Compound: COC(=O)c1ccc(C2c3[nH]c4ccccc4c3CC(C(=O)OC)N2C(=O)CCl)cc1 (centres unmarked) [RSL3]
- pEC50 [9]: 5.55
- pEC50 [10]: 6.44

Compound: CN1C(=O)C(Cc2nccc3c4ccccc4n(C)c23)C(=O)N(C)C1=O [Compound 8]
- Lethality across the seven cell lines (in words) [6]: slightly more active

Compound: CCOc1ccccc1-n1c(C(C)N2CCN(C(=O)COc3ccc(Cl)cc3)CC2)nc2ccccc2c1=O (centres unmarked) [erastin]
- pEC50 [9]: 4.63
- pEC50 [10]: 5.41

Compound: CCOC(=O)C1c2[nH]c3ccccc3c2CCN1C(=O)OCc1ccccc1 (centres unmarked) [Compound 29]
- Lethality across the seven cell lines (in words) [6]: showed lethality in at least five cell lines

Compound: CC(C=O)C1c2c(c3ccccc3n2C(=O)OC(C)(C)C)CCN1C(=O)OC(C)(C)C (centres unmarked) [Compound 20]
- Lethality across the seven cell lines (in words) [6]: showed lethality in at least five cell lines
